Our source for the EC50 values is PubChem BioAssay AID434951 (Broad Institute, 2010).

Usually EC50 stands for the concentration that produces a half-maximal response.

Active and inactive are the calls of the source.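 Rule for the calls: active = a fitted half-maximal concentration EC50 for the rise in nuclear signal no higher than ten times the top dose tested; inconclusive = flat fit with activity between 30% and 70%, or unusable fit; inactive = EC50 beyond ten times the top dose.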 Bounds are passed on as bounds.

The target of this test is Hypoxia-inducible factor 1-alpha (Homo sapiens) (UniProt Q16665). The test can be described thus: activators of HIF1alpha nuclear accumulation, confirmation, imaging, fluorescence, U2OS GFP-HIF1alpha (AID 434951). Particulars: U2OS GFP-HIF1alpha nuclear intensity, high-content imaging.
Chain of Hypoxia-inducible factor 1-alpha (Homo sapiens) (Q16665 whole entry, looked up): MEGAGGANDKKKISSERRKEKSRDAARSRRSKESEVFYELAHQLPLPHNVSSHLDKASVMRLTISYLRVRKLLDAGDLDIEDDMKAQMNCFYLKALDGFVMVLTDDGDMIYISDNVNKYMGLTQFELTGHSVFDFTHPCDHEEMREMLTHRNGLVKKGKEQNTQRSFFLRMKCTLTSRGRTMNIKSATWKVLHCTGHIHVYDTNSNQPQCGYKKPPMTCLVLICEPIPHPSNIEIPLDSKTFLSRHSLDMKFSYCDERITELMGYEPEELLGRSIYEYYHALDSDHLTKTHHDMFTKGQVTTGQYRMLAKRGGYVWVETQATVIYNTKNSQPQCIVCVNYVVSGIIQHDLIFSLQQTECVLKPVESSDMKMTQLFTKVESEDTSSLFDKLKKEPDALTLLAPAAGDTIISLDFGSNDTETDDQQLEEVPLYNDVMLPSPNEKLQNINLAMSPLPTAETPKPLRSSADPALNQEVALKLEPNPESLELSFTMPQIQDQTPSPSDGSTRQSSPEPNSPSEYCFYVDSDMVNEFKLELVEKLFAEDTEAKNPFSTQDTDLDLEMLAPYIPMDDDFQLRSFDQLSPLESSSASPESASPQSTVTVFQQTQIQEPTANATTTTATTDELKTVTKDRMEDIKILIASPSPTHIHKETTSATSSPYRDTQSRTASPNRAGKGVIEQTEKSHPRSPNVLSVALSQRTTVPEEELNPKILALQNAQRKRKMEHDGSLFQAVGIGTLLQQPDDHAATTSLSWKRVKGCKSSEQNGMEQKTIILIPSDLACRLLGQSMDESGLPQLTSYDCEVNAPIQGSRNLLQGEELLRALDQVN
Take `CCOC(=O)c1c(S(=O)(=O)N2CCCC2)c(C)n(C)c1C`: the EC50 is > 35 µM (inactive).
As for `COc1cccc(/C=N\NC(=O)Cn2nnc3ccccc32)c1O`, the EC50 was > 35 µM (inactive).
Under `O=C(NCc1ccco1)c1cc(-c2cccs2)on1` stands 34.5 µM; under `N#Cc1ccccc1OCCCN1CCC(Cc2ccccc2)CC1`, > 35 µM (inactive).
Under `CCOc1cc(N2CCOCC2)c(OCC)cc1NC(C)C(=O)N1CCC(C)CC1` (stereo not given) stands > 35 µM (inactive); under `COc1ccc(CCNC(=O)CC(NC(=O)c2ccccc2Cl)c2ccccc2)cc1` (stereo not given), > 35 µM (inactive); under `Cc1cc(=O)oc2cc(OCC(=O)N3CCN(c4ccc(F)cc4)CC3)ccc12`, > 35 µM (inactive).
The same measure for `O=C(COC(=O)Cc1ccc(S(=O)(=O)N2CCCCC2)s1)Nc1ccc2c(c1)OCO2`: > 35 µM (inactive); for `COc1ccc(N2CCN(C(=O)C3COc4ccccc4O3)CC2)cc1` (stereo not given): > 35 µM (inactive); for `CCCC(=O)NC(c1ccccc1)c1ccc2cccnc2c1O` (stereo not given): 4.71 µM.
As to `Cc1ccccc1-c1nc2ccccc2c(=O)n1/N=C/c1ccccc1[N+](=O)[O-]`, the EC50 is > 35 µM (inactive).
The same measure for `C=CCNC(=O)/C(=C/c1cn(-c2ccccc2)nc1-c1cccc([N+](=O)[O-])c1)NC(=O)c1ccccc1`: > 35 µM (inactive); for `CCOC(=O)N1CCN(C(=O)c2ccc(Cn3c(=S)[nH]c4cc(OCC)c(OCC)cc4c3=O)cc2)CC1`: 5.64 µM.
Under `Cc1cc(Br)cc(/C=N/NC(=O)c2ccc3c(c2)OCO3)c1O` stands 6.26 µM.
The same measure for `CCCN(CCC)C(=S)Nc1cc(C(=O)OC)ccc1C(=O)OC`: > 35 µM (inactive).
Turning to `CCCNC(=O)c1cc2nc(-c3ccccc3)cc(C(F)(F)F)n2n1`, the EC50 was > 35 µM (inactive).
Under `CC(=O)Cn1c(=O)c2c(nc3n2CCCN3Cc2ccccc2)n(C)c1=O` stands > 35 µM (inactive).
For `CCC(C)(C)c1nnc(NC(=O)C2CCN(C(=O)c3ccco3)CC2)s1`, the EC50 was > 35 µM (inactive).
The same measure for `CCC(=O)c1ccc(N2CCN(C(=O)c3ccc(Br)cc3)CC2)c(F)c1`: > 35 µM (inactive); for `CN(C)C(=O)CSc1nc2ccccc2n1Cc1ccccc1`: > 35 µM (inactive).
As to `CC(=O)Nc1ccc(NC(=O)CCC(=O)OCC(=O)c2ccc(F)cc2)cc1`, the EC50 was > 35 µM (inactive).
The same measure for `CCC(=O)NC(c1cccs1)c1ccc2cccnc2c1O` (stereo not given): 5.48 µM; for `COc1ccc(N2C(=O)[C@@H]3C(c4cccnc4)=NO[C@@H]3C2=O)cc1`: > 35 µM (inactive); for `CN(Cc1cccs1)C(=O)CSc1nc(N)cc(N)n1`: > 35 µM (inactive).
Consider `COc1ccc2nc(C)cc(SCC(=O)N/N=C/c3ccc(O)cc3O)c2c1`, for which the EC50 is 8.74 µM.
Under `CCN(CC)c1ccc(NC(=O)Cn2nnc(-c3cccc(OC)c3OC)n2)c(C)c1` stands > 35 µM (inactive); under `Nc1ncnc2c1ncn2CCN1CCOCC1`, > 35 µM (inactive).
The same measure for `c1ccc2c(NCCc3c[nH]c4ccccc34)c3ccccc3nc2c1`: > 35 µM (inactive); for `COc1ccc(/C=N/NC(=O)c2cccnc2)cc1CN1CCN(c2ccc(F)cc2)CC1`: > 35 µM (inactive).
Under `O=C(/C=C/c1ccco1)Oc1cc(Br)cc(/C=N/NC(=O)c2ccccc2O)c1` stands 5.43 µM; under `Cc1ccc(-c2nc3ccccc3nc2NN)cc1`, > 35 µM (inactive).
Regarding `O=C(NNC(=O)c1ccccc1Br)c1ccc(Cl)cc1`, the EC50 was > 35 µM (inactive).
As for `CCN(CC)S(=O)(=O)c1cccc(C(=O)N/N=C(\C)c2ccc(O)cc2O)c1`, the EC50 is 2.12 µM.
Under `CCOC(=O)c1ccc(S(=O)(=O)NNC(=O)COc2ccccc2C)cc1` stands > 35 µM (inactive); under `O=C(N/N=C/c1ccccc1O)c1cccc(C(F)(F)F)c1`, 14.3 µM.
Under `O=C(CCc1nnc(-c2ccccc2)o1)c1ccc(Cl)cc1` stands > 35 µM (inactive); under `C[C@@H](C(=O)Nc1ccc2c(c1)OCCO2)n1c(=O)[nH]c2ccccc2c1=O`, > 35 µM (inactive).
The same measure for `O=C(NCC(=O)N(Cc1ccco1)C(C(=O)NC1CCCCC1)c1cccnc1)c1cccs1` (stereo not given): > 35 µM (inactive).
Turning to `CCOC(=O)c1[nH]cnc1N=Nc1c(O)ccc2ccccc12`, the EC50 was 2.2 µM.
As to `CCC1Oc2ccccc2N(CC(=O)Nc2ccccc2OC)C1=O` (stereo not given), the EC50 was > 35 µM (inactive).
The same measure for `O=C(CSc1c[nH]c2ccccc12)NCc1ccc2c(c1)OCO2`: > 35 µM (inactive).
On to `O=C(c1ccc(OC2CCN(Cc3ccc(F)cc3)CC2)cc1)N1CCCC1`, for which the EC50 was > 35 µM (inactive).
In the case of `CCc1ccc(NC(=O)COC(=O)c2cccs2)cc1`, the EC50 is > 35 µM (inactive).
On to `CC(=O)N1c2ccc(S(=O)(=O)NCCc3ccccc3)cc2CC1C` (stereo not given), for which the EC50 was > 35 µM (inactive).
On to `O=C(CSC1c2ccccc2-c2ccccc21)N/N=C/c1ccccc1O`, for which the EC50 was 6.46 µM.
The same measure for `COc1ccc(OC)c(NC(=O)CCc2nnc3ccc(NCc4ccco4)nn23)c1`: > 35 µM (inactive).
Under `c1cnc(N2CCN(c3ccc4ccccc4n3)CC2)nc1` stands > 35 µM (inactive); under `O=C(/C=C/c1cn(-c2ccccc2)nc1-c1ccccc1)Nc1ccc(C(=O)O)cc1`, > 35 µM (inactive).
The same measure for `Cc1oc(-c2ccc(Cl)cc2)cc1C(=O)/C(C#N)=C/Nc1cccc(OC(F)(F)F)c1`: > 35 µM (inactive); for `COc1ccc(F)cc1CSc1nnnn1-c1ccc(O)cc1`: > 35 µM (inactive); for `O=C(Nc1ccccc1O)c1ccc(NS(=O)(=O)c2cccc3cccnc23)cc1`: 6.84 µM.
In the case of `CCOc1nc(Nc2ccc(OC)cc2)nc(OCC)n1`, the EC50 is > 35 µM (inactive).
The same measure for `CC(=O)c1cccc(N(C(=O)c2ccccn2)C(C(=O)NC2CCCCC2)c2ccccc2)c1` (stereo not given): > 35 µM (inactive).
Under `COC(=O)C1=Nc2ccccc2/C1=C\c1c(O)n(-c2cc(OC)ccc2OC)c(=O)[nH]c1=O` stands > 35 µM (inactive); under `Nc1ccc(C(=O)N/N=C\c2cc(N=Nc3cccc4ccccc34)ccc2O)cc1`, 35.8 µM; under `CC(=O)Nc1sc(-c2ccccc2)nc1-c1ccccc1`, > 35 µM (inactive).
The same measure for `Oc1c(CN2CCOCC2)cc(COCc2ccccc2)c2cccnc12`: 6.71 µM; for `Cc1cc(OC(C)C(=O)NNC(=O)Nc2ccc(F)cc2F)cc(C)c1Cl` (stereo not given): > 35 µM (inactive); for `CCOc1ccccc1NC(=O)COc1ccc2c(c1)OCO2`: > 35 µM (inactive).
Turning to `O=C(N/N=C/c1cccnc1)c1ccc(NC(=O)c2ccc(Cl)cc2)cc1`, the EC50 is > 35 µM (inactive).
The same measure for `O=C(NC(CSCc1ccccc1)C(=O)N/N=C/c1ccc(O)cc1O)c1ccc([N+](=O)[O-])cc1` (stereo not given): 2.51 µM; for `O=C(c1cc(Br)ccc1Cl)N1CCC2(CC1)OCCO2`: > 35 µM (inactive); for `Cc1cccc(C)c1Nc1c(-c2ccccn2)nc2ccccn12`: 3.28 µM.
For `S=C(Nc1ccc(Cl)cc1)Nc1ccc2cn[nH]c2c1`, the EC50 is > 35 µM (inactive).
For the molecule `COc1ccc(C(=O)N/N=C(\c2ccccc2)c2ccccn2)cc1`, the EC50 was 11.5 µM.
Under `CC(=O)Nc1nc(C)c(-c2csc(Nc3ccccn3)n2)s1` stands > 35 µM (inactive); under `O=C1C=C(c2ccccc2)CC(c2cccs2)C1n1cnc([N+](=O)[O-])c1` (stereo not given), > 35 µM (inactive); under `COc1ccc(NC(=O)CCS(=O)(=O)c2ccc3c(c2)CCN3C(C)=O)cc1`, > 35 µM (inactive).
Under `COc1ccc(CN2CCNC(=O)C2CC(=O)N(C)CC2CCOCC2)cc1OC` (stereo not given) stands > 35 µM (inactive); under `S=c1[nH]nc(-c2ccco2)n1/N=C/c1cccs1`, > 35 µM (inactive).
Under `COc1ccc(CN(C)CC(=O)Nc2ccc(SC(F)F)cc2)cc1OC` stands > 35 µM (inactive).
Take `O=C(N/N=C/c1ccccn1)c1ccc(Cl)cc1`: the EC50 is 12.8 µM.
Under `COc1ccc2[nH]c(C(=O)N/N=C/c3ccccc3OC)cc2c1` stands > 35 µM (inactive).
Under `O=C(NCCc1csc(-c2cccc(F)c2)n1)c1ccco1` stands > 35 µM (inactive); under `CCN1CCN(c2ccc([N+](=O)[O-])cc2C=C2C(=O)NC(=O)NC2=O)CC1`, > 35 µM (inactive).
Under `CCCC(=O)NC(c1ccccc1Cl)c1ccc2cccnc2c1O` (stereo not given) stands 6.66 µM; under `CCOC(=O)C(=CNc1ccc(NC2=NCC(C)S2)cc1)C(=O)OCC` (stereo not given), 8.3 µM.
For `O=C(/C=C/c1ccc2c(c1)OCO2)Nc1cccnc1`, the EC50 was > 35 µM (inactive).
Under `O=C1CCCN2N=C(SCC(=O)Nc3ccc(Br)cc3)SC2=N1` stands 26.7 µM; under `c1ccc(-c2nnc(-c3ccccn3)nc2NC2CCCCC2)cc1`, 6.78 µM.
The same measure for `CCN(CC)c1ccc(/C=N/NC(=O)c2c(Cl)cnn2C)c(O)c1`: 2.05 µM.
On to `C=CCNc1nc(-c2ccccn2)nnc1-c1ccccc1`, for which the EC50 was 7.41 µM.
Under `O=C(c1cccc(C(F)(F)F)c1)C1CCCN(C(=O)Cn2cncn2)C1` (stereo not given) stands > 35 µM (inactive); under `COc1ccc(/C(C)=N/NC(=O)c2cccc(S(=O)(=O)N3CCCC3)c2)c(O)c1`, 5.8 µM; under `Cc1ccc(Nc2nnc(-c3ccccc3N)o2)cc1C`, > 35 µM (inactive).
The same measure for `COc1ccc(CCNC(=O)c2nnn(CC(=O)Nc3c(C)cc(C)cc3C)c2N)cc1OC`: > 35 µM (inactive).
The same measure for `COc1cccc(/C=N/Nc2cc(-n3nc(C)cc3-c3ccccc3)ncn2)c1O`: 12.5 µM; for `Cc1nc2nc3c(cn2n1)C(=O)CC(c1ccccc1)C3` (stereo not given): > 35 µM (inactive); for `O=C(CN1CCC(C(=O)c2ccc(Cl)cc2)CC1)Nc1ccc2c(c1)OCCO2`: > 35 µM (inactive).
Consider `CN(C)S(=O)(=O)c1cccc(NC(=S)N/N=C/c2cc(Br)ccc2O)c1`, for which the EC50 was 12.7 µM.
